Data taken from patent US9642897B2, “Treatment of bone diseases” (THE UNIVERSITY OF SYDNEY, priority 2011, dated 2017).

Columns and labels:
[1] = test system: OVX C57BL/6 mice (osteoporosis model); experiment: Quantitative μCT of femur and vertebrae in Sham and OVX mice; format: in vivo; details: oral PA 6 weeks
Method: Nine-month-old oophorectomised (OVX) and SHAM-operated C57BL/6 mice (n=24 per group) were obtained from the Animal Resources Centre (Perth, Wash.). After 2 weeks of acclimation, mice were divided into four groups (Table 2) and received treatment in their drinking water for a total of 6 weeks. Mice treated with plain water were used as controls. Mice were housed in cages in a limited access room. Mice were administered a lethal dose of anaesthetic at the indicated times, exsanguinated, and imaged using a Faxitron MX20 equipped with an FPX-2 Imaging system (Dalsa Medoptics, Waterloo, Ontario, Canada). μ-CT was performed on the left femur and lumbar vertebrae after removal of soft tissues and overnight fixation in 4% paraformaldehyde. The distal metaphysis of the femur and the body of the vertebrae were scanned with a Skyscan 1072 micro-CT instrument (Skyscan, Antwerp, Belgium). Image acquisition was performed at 100 kV and 98 μA, with a 0.9° rotation between frames. The two-dimensional images were used to generate three-dimensional reconstructions to obtain quantitative data with the 3D Creator software supplied with the instrument. Nomenclature and abbreviations of 3D-μCT parameters follow the recommendations of the American Society of Bone and Mineral Research (see Bouxsein et al. (2010), “Guidelines for assessment of bone microstructure in rodents using micro-computed tomography”, J Bone Miner Res., 25: 1468-1486).

[2] = Pharmacokinetics of oral PA: serum concentrations by GC-MS; format: in vivo, C57BL/6 mice
From the text: Nine-month-old oophorectomised (OVX) and SHAM-operated C57BL/6 mice (n=24 per group) were obtained from the Animal Resources Centre (Perth, Wash.). After 2 weeks of acclimation, mice were divided into four groups (Table 2) and received treatment in their drinking water for a total of 6 weeks. Mice treated with plain water were used as controls. Mice were housed in cages in a limited access room.
For absorption analysis of minerals in the duodenum, tissue was dissected and left to dry up in room temperature. 100 mg of tissue were dissolved in nitric acid and concentrations of nine minerals was quantified in the tissue homogenates using an Agilent 5973 mass selective detector via an auto-sampler Agilent Technologies 7683, and controlled using Agilent ChemStation software (Agilent, Santa Clara, Calif., USA). For pharmacokinetic analysis of PA, serum of Pa- and vehicle-treated animals was obtained by centrifugation. 1 μl of serum was injected into an Agilent 6890 gas chromato-graph, interfaced to an Agilent 5973 mass selective detector via an auto-sampler Agilent Technologies 7683, and controlled using Agilent ChemStation software (Agilent, Santa Clara, Calif., USA).

[3] = test system: bone marrow stromal cells (BMSC) from IDO-1 KO and WT mice; experiment: Osteogenic differentiation of BMSC from IDO-1 KO and WT mice (alizarin red); format: cell-based; details: vs vehicle
Method: One side tibiae from 9-month-old IDO-1^−/− and IDO-1^+/+ mice (n=6 per group) were flushed using a 21-gauge needle attached to a 10 ml syringe filled with Dulbecco's modified Eagle's medium (DME) (GIBCO BRL, Gaithersburg, Md., USA). The bone marrow cells were filtered through a cell strainer with a 70-micron nylon mesh (BD Bioscience, Bedford, Mass., USA) and plated in 10 cm^2 tissue culture dishes. The cells were incubated in growth medium at 37° C. with 5% humidified CO2 and isolated by their adherence to tissue culture plastic. Medium was aspirated and replaced with fresh medium every 2 to 3 days to remove non-adherent cells. The adherent MSC were grown to confluency for about 7 days and defined as MSC at passage 0, harvested with 0.25% trypsin and 1 mM EDTA for 5 min at 37° C., diluted 1:3 in growth medium, plated and grown to confluency for further expansion. After 2nd and 3rd passages, MSC were used for subsequent experiments.
To induce differentiation, a total of 10^4 cells were diluted in osteogenic medium and plated in 24 dishes per group in the presence or absence of either quinolinic or picolinic acid. Media was aspirated and replaced with fresh osteogenic medium every 3 days. At 21 days, medium was removed and cultures were fixed in 10% v/v formol/saline solution for 5 min. Cultures were stained with Alizarin Red, which was then extracted and quantified at 570 nm.

[4] = test system: bone marrow stromal cells (BMSC); experiment: Ex vivo cultures of BMSC from PA-treated mice (alizarin red, ALP, CFU-OB); format: in vivo, C57BL/6 mice
Method: To establish adherent bone marrow cultures, both tibiae from PA- and vehicle-treated animals (n=6 per group) were flushed using a 21-gauge needle attached to a 10 ml syringe filled with Dulbecco's modified Eagle's Medium (DMEM) (GIBCO BRL, Gaithersburg, Md., USA). Cells from both tibiae were filtered through a cell strainer with 70-micron nylon mesh (BD Bioscience, Bedford, Mass., USA) and then combined to produce a volume of 2 ml containing ˜10^7 cells/ml. Six-well plate cultures were then established in triplicate, with each well containing a 100-μl aliquot of cell suspension combined with 4 ml of fresh -MEM medium. […]
To induce differentiation, a total of 10^4 cells were diluted in osteogenic medium (prepared with DMEM, 10% FCS, […] dexamethasone, 10 mmol/L β glycerol phosphate and 50 μg/mL ascorbic acid) and plated in six well plates. […] For alkaline phosphatase quantification, the colonies with more than 10% of cells staining positive for ALP were considered as colony forming units-osteoblasts (CFU-OB). For alizarin red quantification, matrix mineralization was quantified by extracting the Alizarin red staining with 100 mM cetypyridinium chloride (Sigma, St. Louis, Mo., USA) at room temperature for 3 h. The absorbance of the extracted Alizarin red S staining was measured at 570 nm.

[5] = test system: RUNX2, OCN and OPN; experiment: Osteogenic gene expression (RUNX2, OCN, OPN) in differentiating MSC; format: cell-based, human
Method: Subsequently, the effect of chemical inhibition/stimulation of the intermediate and end products of kynurenine activation on osteogenic differentiating MSC was then characterised.
These compounds were added to the MSC media on day one of differentiation. […] Media was changed every three days. […]

[6] = highest dose (100 μM), 14 days post-induction

## O=C(O)c1ccccn1 [PA, pyridine-2-carboxylic acid]
[1]
  bone relative to tissue volume (BV/TV): significant and dose-dependent increase
  numbers of trabeculae (Tb.N): increased
  thickness of trabeculae (Tb.Th): increased
[2]; higher dose vs 0.5 gm/Kg/d
  serum concentrations of PA at higher dose: not followed by higher serum concentrations
[2]; low dose of PA
  serum concentrations of PA, OVX vs SHAM counterpart: lower serum concentrations
[2]; oral PA in drinking water, 6 weeks, Sham and OVX mice
  serum concentrations of PA: increased in the treated groups in a dose-dependent manner
[3]
  mineralisation (alizarin red staining): higher levels of mineralisation
[4]; SHAM and OVX mice treated 6 weeks, 2 weeks culture in osteogenic media
  capacity to mineralise (alizarin red), ex vivo BMSC: significantly capacity to mineralise
[4]; cultures from PA-treated vs vehicle treated mice
  number of colony forming units-osteoblasts (CFU-OB): significantly higher
[5]; differentiating MSC
  relative gene expression of RUNX2, OCN and OPN: increased
[5]; [6]
  RE of RUNX2: 1.43
  RE of osteocalcin: 1.93
  RE of osteopontin: 1.35
